Source: patent publication US9085549B2, “Compounds for the treatment of neurodegenerative diseases” (ProteoTech Inc., priority 2011, dated 2015)
Where two headings read alike, the source gives them in different places.

Columns and labels:
α-synuclein fibrils [1] = molecular target: T1, α-synuclein fibrils (Homo sapiens (Human), UniProt P37840); test: biochemical; conditions: 48 h, read-out: Max % Decrease
α-synuclein = α-synuclein (Homo sapiens (Human), UniProt P37840); test: Circular dichroism spectroscopy: inhibition of α-synuclein β-sheet formation; type: biochemical; conditions: read-out: Max % Inhibition
Method: For this purpose, α-synuclein was obtained from rPeptide as a lyophilized salt in 1 mg aliquots. Buffer components and other solvents were obtained from Sigma as A.C.S. Reagent grade or higher. […] After 24 hours, reactions were diluted 20-fold in PBS and CD spectra for each reaction were acquired on a Jasco J-810 spectropolarimeter using a 0.1 cm path length cell. All spectra were recorded with a step size of 0.1 nm, a bandwidth of 1 nm, and an α-synuclein concentration of 0.05 mg/ml. The spectra were trimmed at the shortest wavelength that still provided a dynode voltage less than 600V. The trimmed spectra were then subjected to a data processing routine beginning with noise reduction by Fourier transform followed by subtraction of a blank spectrum (vehicle only without α-synuclein). These blank corrected spectra were then zeroed at 260 nm and the units converted from millidegrees to specific ellipticity.
These percent β-sheet values were then used to provide the respective relative % inhibition of β-sheet induced by the compounds at given molar ratio of test compound:α-synuclein.

[2] = system: A53T α-synuclein-expressing BE-M17 cells; test: XTT assay: rotenone-induced cell death; type: cell-based, human
α-synuclein fibrils [3] = molecular target: T1, α-synuclein fibrils; test: Thioflavin T fluorometry: disruption/disaggregation of pre-formed α-synuclein fibrils; type: biochemical; conditions: for Emax: 48 h, read-out: Max % Decrease
Method: The biological activity of the compounds provided herein as disruptors/inhibitors of Parkinson's disease α-synuclein fibrils was assessed by determining the efficacy of the compounds to cause a disassembly/disruption of pre-formed Parkinson's disease α-synuclein fibrils. In one study, Thioflavin T fluorometry was used to determine the effects of the compounds, and […]).
In one study, Thioflavin T fluorometry was used to determine the effects of the compounds on α-synuclein fibrils. In addition to test compounds, this experiment included a positive control compound and a negative control compound for reference.
For each compound, the % inhibition of Thioflavin T fluorescence (i.e. the decrease compared to control reactions containing α-synuclein alone) was plotted against the log of the concentration of the test compound (expressed as mole ratio relative to α-synuclein).

[4] = system: BE-M17 human neuroblastoma cells stably transfected with A53T-mutant human α-synuclein; test: Thioflavin S staining of rotenone-induced α-synuclein aggregates in cells; type: cell-based; conditions: for inhibition at 0.5 µM / inhibition at 1 µM / inhibition at 2 µM / inhibition at 5 µM: Homo sapiens, Neuroblastoma cell, read-out: Efficacy % Inhibition
α-synuclein fibrils [5] = molecular target: T1, α-synuclein fibrils
TauRD = TauRD (Homo sapiens (Human), UniProt P10636); test: Circular dichroism spectroscopy: tau protein β-sheet formation
Method: CD spectroscopy was also performed to determine each compound's potency in inhibiting β-sheet secondary structure in TauRD under aggregation-prone conditions. The CD spectroscopy and Thio S assays were typically analyzed in parallel from the same sample preparation in order to correlate the results from two independent assays. CD spectra were taken from the samples containing +/− TauRD with increasing concentrations of compounds, and collected at 25° C. on a JASCO Model J-810 Spectropolarimeter. […] Since CD spectra reflect a total population of secondary structures (including random coil, β-sheet, and various intermediate conformers) of TauRD proteins under a given condition, the CD scores were established based on (1) the CD spectra derived from TauRD mixtures with different ratios of random coil/β-sheet; (2) time-dependent conformational changes of TauRD.

[6] = molecular target: human TauRD (Q244-E372 of Tau441) (Homo sapiens (Human), UniProt P10636); test: Thioflavin S fluorometry: inhibition of tau protein fibril formation; type: biochemical; conditions: for IC50: read-out: ThioS (IC50)
Method: Methods Mol Biol, 2005. 299: p. 35-51]. […] (with shaking at 800-1000 rpm for day).
The Thio S fluorometry assay as a primary screening method to identify tau protein aggregation inhibitors from our small molecule library. Aggregated tau fibrils were prepared in the presence of equimolar ratios of TauRD and heparin (10 μM each) in 20 mM Na-phosphate buffer, pH7.4. The reaction mixture was incubated at 37° C. with shaking (800-1000 rpm) for 22-24 hr (or for 3 days). In the Thio S inhibition assays, test compounds at 0, 0.1, 1, 10 and 100 μM were added at time 0 into the reaction containing TauRD and heparin. The same reaction mixture (+/− increasing concentrations of compounds) but without TauRD were also set up in parallel to serve as background controls. For all test compounds background fluorescence readings were very low, usually <5% of those of the TauRD-containing wells. For each compound, the IC50 was calculated using Prism version 5 software (GraphPad Software) by nonlinear regression [(Log [inhibitor] vs. normalized response; variable slope)]. […] The Thio S screening results are summarized in Table 7 (in which the reactions were incubated for 22 hours).

[7] = inhibition of β-sheet formation, 24 hours
[8] = Homo sapiens; read-out: Max % Inhibition
[9] = Thioflavin T fluorescence, 2-day incubation
[10] = rotenone 0.5 μM, compound 0.5 μM
[11] = TauRD and heparin 10 μM each, incubated for 22 hours
[12] = Homo sapiens, read-out: Max % Inhibition
[13] = Homo sapiens, read-out: % inhibition of cell death

Sequence of human TauRD (Q244-E372 of Tau441) (P10636 561-689): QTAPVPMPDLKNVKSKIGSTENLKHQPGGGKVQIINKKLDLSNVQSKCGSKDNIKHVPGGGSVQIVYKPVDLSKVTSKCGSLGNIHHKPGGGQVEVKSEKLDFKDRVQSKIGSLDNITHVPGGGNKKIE
Sequence of TauRD (P10636 561-689): as above

`Oc1ccc(-c2nnc(-c3ccc(O)c(O)c3)o2)cc1O` [SA-67] gave an Emax (α-synuclein fibrils [1]) of 25%, an Emax (α-synuclein; [7]) of 100% and an IC50 ([2]; Homo sapiens; read-out: IC50) of 8.5 µM. For the same molecule, the Emax [2, 8] was 44%, the Emax (α-synuclein fibrils [3]; [9]) was 76% and the inhibition at 0.5 µM [4, 10] was 75%. The inhibition at 1 µM ([4]; rotenone 0.5 μM, compound 1 μM) was 48% and the inhibition at 2 µM ([4]; rotenone 0.5 μM, compound 2 μM) was 92%.
For `Oc1ccc(-c2cnco2)cc1O` [SA-73], the “inhibition of rotenone-induced cell death (in words)” value ([2]; 500 nM rotenone) was “significant, dose-dependent inhibition”, the “Max % Inhibition” value ([2]; inhibition of cell death, 500 nM rotenone) was 77% and the IC50 ([2]; inhibition of cell death, 500 nM rotenone; read-out: IC50) was 35 to 75 µM. The “Max % Decrease” value (α-synuclein fibrils [3]; [9]) was 100%, the “EC50 (mole ratio)” value (α-synuclein fibrils [3]; Thioflavin T fluorescence, moles of test compound per mole of α-synuclein, 6.9 μM pre-formed fibrils, 2 days) was 0.52 mole ratio and the “disruption/disassembly of preformed α-synuclein fibrils (in words)” value (α-synuclein fibrils [3]; molar ratios 50:1 to 0.01:1) was “dose-dependent and extensive disruption/disassembly”. The “Max % Decrease” value (α-synuclein fibrils [5]; Congo red binding, 2-day incubation) was 35% and the “EC50 (mole ratio)” value (α-synuclein fibrils [5]; Congo red binding, moles of test compound per mole of α-synuclein, 2 days) was 1.1 mole ratio.
In the case of `Oc1ccc(Cc2cc(O)c(O)cc2O)cc1O` [SA-97], the Emax (α-synuclein fibrils [1]) is reported as 40%, the Emax (α-synuclein; [7]) is reported as 100% and the IC50 ([2]; Homo sapiens; read-out: IC50) is reported as 39 µM. The Emax [2, 8] was 42% and the Emax (α-synuclein fibrils [3]; [9]) was 99%.
For `Oc1ccc(-c2ccc(-c3cc(O)c(O)c(O)c3)s2)cc1O` [SA-63, 5-(5-(3,4-dihydroxyphenyl)thiophen-2-yl)benzene-1,2,3-triol], the CD (TauRD; semi-quantitative CD score, aggregated TauRD) was “+” and the IC50 [6, 11] was 10.1 ± 0.56 µM.
`Oc1ccc(-c2nc3cc(O)c(O)cc3o2)cc1O` [SA-54] showed an Emax (α-synuclein fibrils [1]) of 57%, an Emax (α-synuclein; [7]) of 100% and an Emax (α-synuclein fibrils [3]; [9]) of 98%. The inhibition at 0.5 µM [4, 10] was 80%, the inhibition at 2 µM ([4]; rotenone 0.5 μM, compound 2 μM) was 83% and the inhibition at 1 µM ([4]; rotenone 2 μM, compound 1 μM) was 56%.
In the case of `CC(=O)N1N=C(c2ccc(O)c(O)c2)CC1c1ccc(O)c(O)c1` (centres unmarked) [SA-98], the Emax (α-synuclein fibrils [1]) is reported as 44%, the Emax (α-synuclein; 24 h) is reported as 100% and the IC50 ([2]; Homo sapiens) is reported as 48 µM. It also gave an Emax [2, 12] of 56%, an Emax (α-synuclein fibrils [3]) of 100% and an inhibition at 0.5 µM [4] of 74%. For the same molecule, the inhibition at 1 µM [4] was 76%.
For `Oc1ccc(Cc2cc(O)c(O)cc2I)cc1O` [SA-93], the Emax (α-synuclein fibrils [1]) was 62%, the Emax (α-synuclein; [7]) was 91% and the IC50 ([2]; Homo sapiens; read-out: IC50) was 19.8 µM. The Emax [2, 8] was 100%, the Emax (α-synuclein fibrils [3]; [9]) was 100% and the inhibition at 2 µM ([4]; rotenone 2 μM, compound 2 μM) was 45%.
`Oc1ccc(-c2nnc(-c3cc(O)c(O)cc3Br)o2)cc1O` [SA-55] was tested, and the CD (TauRD) was “−” and the “ThioS (IC50, μM)” value [6] was “no inhibition”.
`O=C(/C=C/c1cc(O)c(O)cc1Br)c1ccc(O)c(O)c1` [SA-95] gave an Emax (α-synuclein fibrils [1]) of 64%, an Emax (α-synuclein; [7]) of 97% and an IC50 ([2]; Homo sapiens; read-out: IC50) of 3.8 µM. It also gave an Emax [2, 8] of 63%, an Emax (α-synuclein fibrils [3]; [9]) of 100% and an inhibition at 0.5 µM [4, 10] of 73%. It also gave an inhibition at 1 µM ([4]; rotenone 0.5 μM, compound 1 μM) of 98%, an inhibition at 2 µM ([4]; rotenone 0.5 μM, compound 2 μM) of 90% and an inhibition at 0.5 µM ([4]; rotenone 2 μM, compound 0.5 μM) of 95%.
With `O=C(/C=C/c1ccc(O)c(O)c1)c1ccc(O)c(O)c1` [SA-94] the Emax (α-synuclein fibrils [1]) was 65%, the Emax (α-synuclein; 24 h) was 95% and the IC50 ([2]; Homo sapiens) was 2.3 µM. The inhibition at 3.5 µM [2, 13] was 35%, the inhibition at 15 µM [2, 13] was 58% and the Emax [2, 12] was 58%. For the same molecule, the Emax (α-synuclein fibrils [3]) was 100%, the inhibition at 0.5 µM [4] was 70% and the inhibition at 1 µM [4] was 63%. For the same molecule, the inhibition at 2 µM [4] was 85%.
`Oc1ccc(-c2cnc(-c3ccc(O)c(O)c3)o2)cc1O` [SA-70] was tested, and the Emax (α-synuclein fibrils [1]) was 88%, the Emax (α-synuclein; 24 h) was 92% and the IC50 ([2]; Homo sapiens) was 5.6 µM. For the same molecule, the Emax [2, 12] was 78% and the Emax (α-synuclein fibrils [3]) was 100%.
With `O=C(/C=C/c1ccc(O)c(O)c1)c1cc(O)c(O)cc1Br` [SA-96] the Emax (α-synuclein fibrils [1]) was 72%, the Emax (α-synuclein; 24 h) was 100% and the IC50 ([2]; Homo sapiens) was 4.3 µM. It also gave an Emax [2, 12] of 61%, an Emax (α-synuclein fibrils [3]) of 100% and an inhibition at 0.5 µM [4] of 73%. For the same molecule, the inhibition at 1 µM [4] was 82% and the inhibition at 2 µM [4] was 81%.
`O=[N+]([O-])c1cc(-c2ccc(O)c(O)c2)ccc1-c1ccc(O)c(O)c1` [SA-99] showed an Emax (α-synuclein fibrils [1]) of 54%, an Emax (α-synuclein; [7]) of 98% and an Emax (α-synuclein fibrils [3]; [9]) of 100%.
With `Oc1ccc(-c2nsc(-c3ccc(O)c(O)c3)n2)cc1O` [SA-57] the Emax (α-synuclein fibrils [1]) was 66%, the Emax (α-synuclein; [7]) was 100% and the Emax (α-synuclein fibrils [3]; [9]) was 100%. For the same molecule, the “% inhibition of Thioflavin T fluorescence” value (α-synuclein fibrils [3]; test compound:α-synuclein molar ratio of 1:1) was 83%, the “% inhibition of Thioflavin T fluorescence” value (α-synuclein fibrils [3]; test compound:α-synuclein molar ratios ≧5:1) was 97-100% and the “% inhibition of Congo red binding” value (α-synuclein fibrils [5]; test compound:α-synuclein molar ratio of 5:1) was 49%. The “% inhibition of Congo red binding” value (α-synuclein fibrils [5]; test compound:α-synuclein molar ratio of 50:1) was 66%.
For `Oc1ccc(-c2cc(Br)c(-c3ccc(O)c(O)c3)s2)cc1O` [SA-59], the IC50 ([2]; Homo sapiens) was 3.1 µM, the Emax [2, 12] was 63% and the “Efficacy % Inhibition” value [4] was 67%. The inhibition at 1 µM [4] was 69%, the inhibition at 2 µM [4] was 76% and the inhibition at 5 µM [4] was 56%.
With `Oc1ccc(-c2ccc(Br)s2)cc1O` [SA-62] the “ThioS (IC50, μM)” value [6, 11] was “no inhibition”.
With `COc1ccc(-c2cc(-c3ccc(OC)c(OC)c3)c(-c3ccc(OC)c(OC)c3)s2)cc1OC` [SA-60, 2,3,5-tri(3′,4′-dimethoxyphenyl)thiophene] the “inhibition of rotenone-induced cell death (in words)” value [2] was “significant, dose-dependent inhibition”, the IC50 ([2]; Homo sapiens) was 12.5 µM and the Emax [2, 12] was 33%. For the same molecule, the “ThioS (IC50, μM)” value [6, 11] was “no inhibition”.
In the case of `Oc1ccc(-c2cn(-c3ccc(O)c(O)c3)nn2)cc1O` [SA-68], the Emax (α-synuclein; 24 h) is reported as 100%, the IC50 ([2]; Homo sapiens; read-out: IC50) is reported as 24 µM and the Emax [2, 8] is reported as 61%. It also gave an Emax (α-synuclein fibrils [3]) of 100%, an inhibition at 1 µM ([4]; rotenone 0.5 μM, compound 1 μM) of 69% and an inhibition at 5 µM ([4]; rotenone 0.5 μM, compound 5 μM) of 73%. It also gave an inhibition at 5 µM ([4]; rotenone 2 μM, compound 5 μM) of 44%.
`Oc1ccc(-c2cnc(-c3ccc(O)c(O)c3)s2)cc1O` [SA-64] showed an Emax (α-synuclein fibrils [1]) of 85%, an Emax (α-synuclein; [7]) of 100% and an IC50 ([2]; Homo sapiens; read-out: IC50) of 2.6 µM. For the same molecule, the Emax [2, 8] was 100%, the IC50 [6, 11] was 17.6 µM and the Emax (α-synuclein fibrils [3]; [9]) was 100%.
